Counter-ions that a name gives are not always drawn.
Legend:
[1] = molecular target: T1, SphK2 (Homo sapiens, UniProt Q9NRA0); assay: biochemical; conditions: for inhibition at 1 µM: read-out: inhibition at SphK2
T1 sequence (Q9NRA0 1-654): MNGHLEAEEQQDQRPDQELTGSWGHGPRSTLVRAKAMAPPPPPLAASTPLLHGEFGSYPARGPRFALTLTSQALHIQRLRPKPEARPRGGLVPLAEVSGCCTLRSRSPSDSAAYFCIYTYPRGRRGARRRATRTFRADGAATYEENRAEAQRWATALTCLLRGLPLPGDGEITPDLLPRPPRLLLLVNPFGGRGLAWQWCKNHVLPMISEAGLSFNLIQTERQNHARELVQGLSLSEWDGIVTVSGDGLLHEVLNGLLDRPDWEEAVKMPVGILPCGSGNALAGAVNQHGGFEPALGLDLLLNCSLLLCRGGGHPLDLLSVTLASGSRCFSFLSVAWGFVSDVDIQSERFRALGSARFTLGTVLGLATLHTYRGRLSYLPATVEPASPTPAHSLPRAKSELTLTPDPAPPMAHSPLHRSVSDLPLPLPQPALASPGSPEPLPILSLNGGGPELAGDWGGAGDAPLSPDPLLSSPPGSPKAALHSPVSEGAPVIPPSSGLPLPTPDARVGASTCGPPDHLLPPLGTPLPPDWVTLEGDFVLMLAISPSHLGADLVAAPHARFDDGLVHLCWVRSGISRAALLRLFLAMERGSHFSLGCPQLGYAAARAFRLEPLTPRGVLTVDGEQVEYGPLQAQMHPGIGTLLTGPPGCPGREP

[2] = molecular target: T2, SphK1 (Homo sapiens, UniProt Q9NYA1); assay: biochemical; conditions: read-out: inhibition at SphK1
T2 sequence (Q9NYA1 whole entry, species assumed): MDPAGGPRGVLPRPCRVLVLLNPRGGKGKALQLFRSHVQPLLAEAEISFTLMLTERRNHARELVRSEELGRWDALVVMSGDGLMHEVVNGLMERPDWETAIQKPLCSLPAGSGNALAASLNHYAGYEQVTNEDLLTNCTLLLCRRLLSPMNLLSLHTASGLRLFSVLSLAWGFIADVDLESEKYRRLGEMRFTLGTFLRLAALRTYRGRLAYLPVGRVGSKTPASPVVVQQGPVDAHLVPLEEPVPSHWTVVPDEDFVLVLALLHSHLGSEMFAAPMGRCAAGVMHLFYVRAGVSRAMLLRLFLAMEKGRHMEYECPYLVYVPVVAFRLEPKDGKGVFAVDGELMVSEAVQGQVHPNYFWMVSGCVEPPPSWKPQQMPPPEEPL

[3] = molecular target: T2, SphK1; conditions: screen at 1 μM
[4] = molecular target: T1, SphK2; conditions: screen at 1 μM
[5] = cited from earlier work

| SMILES | inhibition at 1 µM [1] | inhibition at 1 µM [2] | inhibitory activity at SphK1 [3] | inhibitory activity at SphK2 [4] | other results |
| --- | --- | --- | --- | --- | --- |
| CCCCCCCCc1ccc(-c2noc([C@@H](NC(=N)N)C(C)C)n2)cc1 [Compound 7d, (S)-1-(2-Methyl-1-(3-(4-octylphenyl)-1,2,4-oxadiazol-5-yl)-propyl)guanidine Hydrochloride] | < 20% | < 20% |  |  |  |
| CCCCCCCCc1ccc(CNC(=O)[C@@H]2CCCN2C(=N)N)cc1.O=C(O)C(F)(F)F [Compound 31, (S)-Amino(2-((4-octylbenzyl)carbamoyl)pyrrolidin-1-yl)-methaniminium 2,2,2-Trifluoroacetate] |  |  | no significant inhibitory effect | no significant inhibitory effect |  |
| CCCCCCCCc1ccc(-c2noc(CNC(=N)N)n2)cc1 [Compound 7a, 1-((3-(4-Octylphenyl)-1,2,4-oxadiazol-5-yl)methyl)guanidine Hydrochloride] | < 20% | < 20% |  |  |  |
| O=C(NCc1ccncc1)C12CC3CC(C1)CC(c1ccc(Cl)cc1)(C3)C2 [ABC294640] |  |  |  |  | S1P levels in vivo [5]: decreased |
| CCCCCCCCCCc1ccc(NC(=O)[C@@H]2CCCN2C(=N)N)cc1.O=C(O)C(F)(F)F [Compound 29a, (S)-Amino(2-((4-decylphenyl)carbamoyl)pyrrolidin-1-yl)-methaniminium 2,2,2-Trifluoroacetate] |  |  | inactive | inactive |  |
| CCCCCCCCc1ccc(-c2noc(C3CN(C(=N)N)C3)n2)cc1.Cl [Compound 20a, Amino(3-(3-(4-octylphenyl)-1,2,4-oxadiazol-5-yl)azetidin-1-yl)methaniminium Chloride] |  |  | essentially inactive | essentially inactive |  |
| CCCCCCCCc1ccc(-c2noc([C@H](CO)NC(=N)N)n2)cc1 [Compound 7e, (S)-Amino((2-hydroxy-1-(3-(4-octylphenyl)-1,2,4-oxadiazol-5-yl)ethyl)amino)methaniminium Chloride] | < 20% | < 20% |  |  |  |
| CCCCCCCCc1ccc(-c2noc([C@H](C)NC(=N)N)n2)cc1 [Compound 7c, (S)-1-(1-(3-(4-Octylphenyl)-1,2,4-oxadiazol-5-yl)ethyl)-guanidine Hydrochloride] | < 20% | < 20% |  |  |  |
| CCCCCCCCc1ccc(-c2noc([C@@H]3CCN(C(=N)N)C3)n2)cc1.Cl [Compound 20b, (R)-Amino(3-(3-(4-octylphenyl)-1,2,4-oxadiazol-5-yl)-pyrrolidin-1-yl)methaniminium Chloride] |  |  | essentially inactive | essentially inactive |  |
| CCCCCCCCc1ccc(-c2noc(CN(C)C(=N)N)n2)cc1.Cl [Compound 7b, 1-Methyl-1-((3-(4-octylphenyl)-1,2,4-oxadiazol-5-yl)methyl)-guanidine Hydrochloride] |  |  | inactive | inactive |  |
| CCCCCCCCc1ccc(-c2noc([C@@H]3CCN3C(=N)N)n2)cc1 [Compound 7j, (S)-2-(3-(4-Octylphenyl)-1,2,4-oxadiazol-5-yl)azetidine-1-carboximidamide Hydrochloride] |  |  |  |  | Ki [1]: 1 µM |
| CCCCCCCCCCc1ccc(NC(=O)[C@H]2CCCN2C(=N)N)cc1.O=C(O)C(F)(F)F [Compound 29b, (R)-Amino(2-((4-decylphenyl)carbamoyl)pyrrolidin-1-yl)-methaniminium 2,2,2-Trifluoroacetate] |  |  | inactive | inactive |  |
